The supplement of paper PMC11061612

Experiments:
[1] = test system: HCC-44 (Lung Adenocarcinoma); test: Bliss excess, mean over the matrix (fraction); higher = more synergy
How it was run: (§1)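 After 24 hours at 37°C and 5% CO2 in 1536-well plates, cells in DMEM/F12 or RPMI plus 10% FBS received two-drug dose matrices for 72 hours. Viability came from CellTiter-Glo 2.0 luminescence and was scaled as inhibition, anchored at 0 by vehicle wells and at 1 by blank wells. Combination Emax is taken as the second-highest inhibition in the matrix, and Bliss excess as the observed combination effect less EA + EB − EA·EB, with EA and EB the single-agent effects.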

[2] = test system: HCC-44 (Lung Adenocarcinoma); test: combination Emax (second highest fraction inhibited in the dose matrix, 72 h); higher = more inhibition; extreme values may be limits of the assay
How it was run: as §1

HuO-3N1 (Osteosarcoma) = test: as above
How it was run: as §1

KYM-1 (Rhabdomyosarcoma) = test: as above
How it was run: as §1

[3] = test system: PANC-02-03 (Pancreatic Carcinoma); test: as above
How it was run: as §1

[4] = test system: RERF-LC-KJ (Lung Adenocarcinoma); test: as above
How it was run: as §1
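Wherever Bliss excess, mean over the matrix is given: after 72 h of two-drug dosing.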

SMILES: C[C@@H](c1ccc2nccn2c1)n1nnc2ncc(-c3cnn(C)c3)nc21 [Savolitinib] + CC1(C)CCC(CN2CCN(c3ccc(C(=O)NS(=O)(=O)c4ccc(NCC5CCOCC5)c([N+](=O)[O-])c4)c(Oc4cnc5[nH]ccc5c4)c3)CC2)=C(c2ccc(Cl)cc2)C1 [Venetoclax] (first compound max 1 µM, 7x7, partner max 1 µM)
- Bliss excess [1]: -0.02
- combination Emax [2]: 0.148
- combination Emax (HuO-3N1 (Osteosarcoma)): 0.181
- combination Emax (KYM-1 (Rhabdomyosarcoma)): 0.185
- combination Emax [3]: 0.157
- combination Emax [4]: 0.15

SMILES: COc1nnc2ccc(N3CCC(c4ccc(OCCN5CCN(C)C(=O)[C@H]5C)cc4)CC3)nn12 [AZD5153] + C[C@@H]1COCCN1C2=NC(=NC(=C2)C3(CC3)[S@](=N)(=O)C)C4=C5C=CNC5=NC=C4 [AZD6738] (first compound max 1 µM, 7x7, partner max 10 µM)
- Bliss excess [1]: 0.0139
- combination Emax [2]: 0.726
- combination Emax (HuO-3N1 (Osteosarcoma)): 0.427
- combination Emax (KYM-1 (Rhabdomyosarcoma)): 0.962
- combination Emax [3]: 0.727
- combination Emax [4]: 0.968

SMILES: COc1nnc2ccc(N3CCC(c4ccc(OCCN5CCN(C)C(=O)[C@H]5C)cc4)CC3)nn12 [AZD5153] + C=CCn1c(=O)c2cnc(Nc3ccc(N4CCN(C)CC4)cc3)nc2n1-c1cccc(C(C)(C)O)n1 [AZD1775] (first compound max 1 µM, partner max 1 µM)
- Bliss excess [1]: -0.0787
- combination Emax [2]: 0.63
- combination Emax (HuO-3N1 (Osteosarcoma)): 0.466
- combination Emax (KYM-1 (Rhabdomyosarcoma)): 0.901
- combination Emax [3]: 0.645
- combination Emax [4]: 0.957

SMILES: Cn1cnc2c(F)c(Nc3ccc(Br)cc3Cl)c(C(=O)NOCCO)cc21 [Selumetinib] + CC(C)n1c(=O)n(C)c2cnc3cc(F)c(-c4ccc(OCCCN5CCCCC5)nc4)cc3c21 [AZD1390] (first compound max 10 µM, 7x7, partner max 0.3 µM)
- Bliss excess [1]: -0.0225
- combination Emax [2]: 0.396
- combination Emax (HuO-3N1 (Osteosarcoma)): 0.129
- combination Emax (KYM-1 (Rhabdomyosarcoma)): 0.141
- combination Emax [3]: 0.414
- combination Emax [4]: 0.2

SMILES: COc1nnc2ccc(N3CCC(c4ccc(OCCN5CCN(C)C(=O)[C@H]5C)cc4)CC3)nn12 [AZD5153] + CCN(CCO)CCCOc1ccc2c(Nc3cc(CC(=O)Nc4cccc(F)c4)[nH]n3)ncnc2c1 [AZD2811] (first compound max 1 µM, 7x7, partner max 1 µM)
- Bliss excess [1]: -0.0338
- combination Emax [2]: 0.617
- combination Emax (HuO-3N1 (Osteosarcoma)): 0.421
- combination Emax (KYM-1 (Rhabdomyosarcoma)): 0.85
- combination Emax [3]: 0.592
- combination Emax [4]: 0.971

SMILES: COc1cc2ncnc(Nc3ccc(F)c(Cl)c3)c2cc1OCCCN1CCOCC1 [Gefitinib] + CC(C)n1c(=O)n(C)c2cnc3cc(F)c(-c4ccc(OCCCN5CCCCC5)nc4)cc3c21 [AZD1390] (first compound max 10 µM, 7x7, partner max 0.3 µM)
- Bliss excess [1]: -0.0387
- combination Emax [2]: 0.121
- combination Emax (HuO-3N1 (Osteosarcoma)): 0.0711
- combination Emax (KYM-1 (Rhabdomyosarcoma)): 0.224
- combination Emax [3]: 0.266
- combination Emax [4]: 0.351

SMILES: CC(=O)c1c(C)c2cnc(Nc3ccc(N4CCNCC4)cn3)nc2n(C2CCCC2)c1=O [Palbociclib] + Cn1cnc2c(F)c(Nc3ccc(Br)cc3Cl)c(C(=O)NOCCO)cc21 [Selumetinib] (first compound max 10 µM, 7x7, partner max 10 µM)
- Bliss excess [1]: 0.0332
- combination Emax [2]: 0.426
- combination Emax (HuO-3N1 (Osteosarcoma)): 0.154
- combination Emax (KYM-1 (Rhabdomyosarcoma)): 0.93
- combination Emax [3]: 0.475
- combination Emax [4]: 0.197

SMILES: CC(=O)c1c(C)c2cnc(Nc3ccc(N4CCNCC4)cn3)nc2n(C2CCCC2)c1=O [Palbociclib] + CC1(C)CCC(CN2CCN(c3ccc(C(=O)NS(=O)(=O)c4ccc(NCC5CCOCC5)c([N+](=O)[O-])c4)c(Oc4cnc5[nH]ccc5c4)c3)CC2)=C(c2ccc(Cl)cc2)C1 [Venetoclax] (first compound max 10 µM, 7x7, partner max 1 µM)
- Bliss excess [1]: -0.0374
- combination Emax [2]: 0.0628
- combination Emax (HuO-3N1 (Osteosarcoma)): 0.146
- combination Emax (KYM-1 (Rhabdomyosarcoma)): 0.863
- combination Emax [3]: 0.148
- combination Emax [4]: 0.117

SMILES: CN(C)CCCOc1ccc(-c2ccc3ncc4c(c3c2)n(C2CCOCC2)c(=O)n4C)cn1 [AZD0156] + C[C@@H]1COCCN1C2=NC(=NC(=C2)C3(CC3)[S@](=N)(=O)C)C4=C5C=CNC5=NC=C4 [AZD6738] (first compound max 1 µM, 7x7, partner max 10 µM)
- combination Emax (HuO-3N1 (Osteosarcoma)): 0.299
- combination Emax (KYM-1 (Rhabdomyosarcoma)): 0.786
- combination Emax [3]: 0.579
- combination Emax [4]: 0.225

SMILES: COc1cccc(OCCCN)c1-c1cc(Nc2cnc(C#N)cn2)n[nH]1 [Prexasertib] + O=C(c1cc(Cc2n[nH]c(=O)c3ccccc23)ccc1F)N1CCN(C(=O)C2CC2)CC1 [Olaparib] (first compound max 1 µM, 7x7, partner max 10 µM)
- combination Emax (HuO-3N1 (Osteosarcoma)): 0.524
- combination Emax (KYM-1 (Rhabdomyosarcoma)): 0.855
- combination Emax [3]: 0.502
- combination Emax [4]: 0.203

SMILES: CN(C)CCCOc1ccc(-c2ccc3ncc4c(c3c2)n(C2CCOCC2)c(=O)n4C)cn1 [AZD0156] + CCN(CCO)CCCOc1ccc2c(Nc3cc(CC(=O)Nc4cccc(F)c4)[nH]n3)ncnc2c1 [AZD2811] (first compound max 1 µM, 7x7, partner max 1 µM)
- combination Emax (HuO-3N1 (Osteosarcoma)): 0.15
- combination Emax (KYM-1 (Rhabdomyosarcoma)): 0.0599
- combination Emax [3]: 0.163
- combination Emax [4]: 0.359

SMILES: CN(CCO)CC[C@H](CSc1ccccc1)Nc1ccc(S(=O)(=O)NC(=O)c2ccc(N3CCC([C@@H](O)c4ccccc4-c4ccc(Cl)cc4)CC3)cc2)cc1S(=O)(=O)C(F)(F)F [AZD4320] + CN(C)CCCOc1ccc(-c2ccc3ncc4c(c3c2)n(C2CCOCC2)c(=O)n4C)cn1 [AZD0156] (first compound max 1 µM, 7x7, partner max 1 µM)
- combination Emax (HuO-3N1 (Osteosarcoma)): 0.164
- combination Emax (KYM-1 (Rhabdomyosarcoma)): 0.14
- combination Emax [3]: 0.138
- combination Emax [4]: 0.267

SMILES: COc1cccc(OCCCN)c1-c1cc(Nc2cnc(C#N)cn2)n[nH]1 [Prexasertib] + Cc1cc2ncnn2cc1Nc1ncc2c(n1)n(C1CCOCC1)c(=O)n2C [AZD7648] (first compound max 1 µM, 7x7, partner max 10 µM)
- combination Emax (HuO-3N1 (Osteosarcoma)): 0.49
- combination Emax (KYM-1 (Rhabdomyosarcoma)): 0.942
- combination Emax [3]: 0.609
- combination Emax [4]: 0.416

SMILES: Cc1c2c(nn1C)CSCc1cc(n(C)n1)CSc1cc(c3ccccc3c1)OCCCc1c(C(=O)O)n(C)c3c-2c(Cl)ccc13 [AZD5991] + C=CCn1c(=O)c2cnc(Nc3ccc(N4CCN(C)CC4)cc3)nc2n1-c1cccc(C(C)(C)O)n1 [AZD1775] (first compound max 1 µM, partner max 1 µM)
- combination Emax (HuO-3N1 (Osteosarcoma)): 1
- combination Emax (KYM-1 (Rhabdomyosarcoma)): 0.755
- combination Emax [3]: 0.594
- combination Emax [4]: 0.563

SMILES: COc1cc2c(cc1OCCCCCOc1cc3c(cc1OC)C(=O)N1C=C(C)C[C@H]1C=N3)N=C[C@@H]1CC(C)=CN1C2=O [SG3199] + O=C(c1cc(Cc2n[nH]c(=O)c3ccccc23)ccc1F)N1CCN(C(=O)C2CC2)CC1 [Olaparib] (first compound max 0.001 µM, 7x7, partner max 10 µM)
- combination Emax (HuO-3N1 (Osteosarcoma)): 0.219
- combination Emax (KYM-1 (Rhabdomyosarcoma)): 0.169
- combination Emax [3]: 0.0277
- combination Emax [4]: 0.148

SMILES: CCc1c2c(nc3ccc(O)cc13)-c1cc3c(c(=O)n1C2)COC(=O)[C@]3(O)CC [SN-38] + CN(C)CCCOc1ccc(-c2ccc3ncc4c(c3c2)n(C2CCOCC2)c(=O)n4C)cn1 [AZD0156] (first compound max 0.3 µM, 7x7, partner max 1 µM)
- combination Emax (HuO-3N1 (Osteosarcoma)): 0.567
- combination Emax (KYM-1 (Rhabdomyosarcoma)): 0.952
- combination Emax [3]: 0.693
- combination Emax [4]: 0.673

SMILES: Cc1cc2ncnn2cc1Nc1ncc2c(n1)n(C1CCOCC1)c(=O)n2C [AZD7648] + O=C(c1cc(Cc2n[nH]c(=O)c3ccccc23)ccc1F)N1CCN(C(=O)C2CC2)CC1 [Olaparib] (first compound max 10 µM, 7x7, partner max 10 µM)
- combination Emax (HuO-3N1 (Osteosarcoma)): 0.233
- combination Emax (KYM-1 (Rhabdomyosarcoma)): 0.274
- combination Emax [3]: 0.147
- combination Emax [4]: 0.241

SMILES: CN(CCO)CC[C@H](CSc1ccccc1)Nc1ccc(S(=O)(=O)NC(=O)c2ccc(N3CCC([C@@H](O)c4ccccc4-c4ccc(Cl)cc4)CC3)cc2)cc1S(=O)(=O)C(F)(F)F [AZD4320] + C1CN(CCC1(C(=O)N[C@@H](CCO)C2=CC=C(C=C2)Cl)N)C3=NC=NC4=C3C=CN4 [Capivasertib] (first compound max 1 µM, 7x7, partner max 3 µM)
- combination Emax (HuO-3N1 (Osteosarcoma)): 0.201
- combination Emax (KYM-1 (Rhabdomyosarcoma)): 0.0568
- combination Emax [3]: 0.0923
- combination Emax [4]: 0.293

SMILES: CN(CCO)CC[C@H](CSc1ccccc1)Nc1ccc(S(=O)(=O)NC(=O)c2ccc(N3CCC([C@@H](O)c4ccccc4-c4ccc(Cl)cc4)CC3)cc2)cc1S(=O)(=O)C(F)(F)F [AZD4320] + C[C@@H]1COCCN1C2=NC(=NC(=C2)C3(CC3)[S@](=N)(=O)C)C4=C5C=CNC5=NC=C4 [AZD6738] (first compound max 1 µM, 7x7, partner max 10 µM)
- combination Emax (HuO-3N1 (Osteosarcoma)): 0.479
- combination Emax (KYM-1 (Rhabdomyosarcoma)): 0.95
- combination Emax [3]: 0.615
- combination Emax [4]: 0.324
